Laboratory results as given in ChEMBL document CHEMBL1275550, “In vitro activity of doripenem, a carbapenem for the treatment of challenging infections caused by gram-negative bacteria, against recent clinical isolates from the United States” (2008).
In brackets after ≈: the same amount, converted by molar mass.

Legend:
Assay type in all cases: functional
[1] = tested on: Proteus mirabilis; assay: Antimicrobial activity against Non-ESBL Proteus mirabilis assessed as susceptible isolate by broth microdilution method
[2] = tested on: Klebsiella pneumoniae; assay: Antimicrobial activity against ESBL producing Klebsiella pneumoniae assessed as resistant isolate by broth microdilution method
[3] = tested on: Serratia marcescens; assay: Antimicrobial activity against Ceftazidime susceptible Serratia marcescens assessed as intermediate isolate by broth microdilution method
[4] = tested on: Proteus mirabilis; assay: Antimicrobial activity against ESBL producing Proteus mirabilis assessed as intermediate isolate by broth microdilution method
[5] = tested on: Klebsiella pneumoniae; assay: Antimicrobial activity against ESBL producing Klebsiella pneumoniae assessed as susceptible isolate by broth microdilution method
[6] = tested on: Citrobacter; assay: Antimicrobial activity against Citrobacter with derepressed AmpC beta-lactamsae by broth microdilution method
[7] = tested on: Klebsiella pneumoniae; assay: Antimicrobial activity against Non-ESBL Klebsiella pneumoniae by broth microdilution method
[8] = tested on: Enterobacter cloacae; assay: Antimicrobial activity against Enterobacter cloacae with nonderepressed AmpC beta-lactamsae assessed as susceptible isolate by broth microdilution method
[9] = tested on: Citrobacter; assay: Antimicrobial activity against Citrobacter with nonderepressed AmpC beta-lactamsae by broth microdilution method
[10] = tested on: Enterobacteriaceae; assay: Antimicrobial activity against Ceftazidime non-susceptible Enterobacteriaceae by broth microdilution method
[11] = tested on: Proteus mirabilis; assay: Antimicrobial activity against ESBL producing Proteus mirabilis by broth microdilution method
[12] = tested on: Escherichia coli; assay: Antimicrobial activity against Non-ESBL Escherichia coli by broth microdilution method
[13] = tested on: Klebsiella pneumoniae; assay: Antimicrobial activity against Non-ESBL Klebsiella pneumoniae assessed as susceptible isolate by broth microdilution method
[14] = tested on: Escherichia coli; assay: Antimicrobial activity against Non-ESBL Escherichia coli assessed as susceptible isolate by broth microdilution method
[15] = tested on: Klebsiella pneumoniae; assay: Antimicrobial activity against ESBL producing Klebsiella pneumoniae by broth microdilution method
[16] = tested on: Enterobacter cloacae; assay: Antimicrobial activity against Enterobacter cloacae with nonderepressed AmpC beta-lactamsae assessed as intermediate isolate by broth microdilution method
[17] = tested on: Serratia marcescens; assay: Antimicrobial activity against Ceftazidime non-susceptible Serratia marcescens assessed as resistant isolate by broth microdilution method
[18] = tested on: Citrobacter; assay: Antimicrobial activity against Citrobacter with nonderepressed AmpC beta-lactamsae assessed as intermediate isolate by broth microdilution method
[19] = tested on: Klebsiella pneumoniae; assay: Antimicrobial activity against Non-ESBL Klebsiella pneumoniae assessed as intermediate isolate by broth microdilution method
[20] = tested on: Citrobacter; assay: Antimicrobial activity against Citrobacter with derepressed AmpC beta-lactamsae assessed as resistant isolate by broth microdilution method
[21] = tested on: Enterobacteriaceae; assay: Antimicrobial activity against ceftazidime-susceptible Enterobacteriaceae assessed as susceptible isolate by broth microdilution method
[22] = tested on: Proteus mirabilis; assay: Antimicrobial activity against Non-ESBL Proteus mirabilis by broth microdilution method
[23] = tested on: Proteus mirabilis; assay: Antimicrobial activity against Non-ESBL Proteus mirabilis assessed as intermediate isolate by broth microdilution method
[24] = tested on: Citrobacter; assay: Antimicrobial activity against Citrobacter with nonderepressed AmpC beta-lactamsae assessed as susceptible isolate by broth microdilution method
[25] = tested on: Serratia marcescens; assay: Antimicrobial activity against Ceftazidime non-susceptible Serratia marcescens assessed as intermediate isolate by broth microdilution method
[26] = tested on: Klebsiella pneumoniae; assay: Antimicrobial activity against ESBL producing Klebsiella pneumoniae assessed as intermediate isolate by broth microdilution method
[27] = tested on: Serratia marcescens; assay: Antimicrobial activity against Ceftazidime non-susceptible Serratia marcescens assessed as susceptible isolate by broth microdilution method
[28] = tested on: Escherichia coli; assay: Antimicrobial activity against Non-ESBL Escherichia coli assessed as resistant isolate by broth microdilution method
[29] = tested on: Escherichia coli; assay: Antimicrobial activity against ESBL producing Escherichia coli by broth microdilution method
[30] = tested on: Enterobacteriaceae; assay: Antimicrobial activity against ceftazidime-susceptible Enterobacteriaceae assessed as intermediate isolate by broth microdilution method
[31] = tested on: Serratia marcescens; assay: Antimicrobial activity against Ceftazidime susceptible Serratia marcescens assessed as resistant isolate by broth microdilution method
[32] = tested on: Enterobacteriaceae; assay: Antimicrobial activity against ceftazidime-susceptible Enterobacteriaceae assessed as resistant isolate by broth microdilution method
[33] = tested on: Enterobacteriaceae; assay: Antimicrobial activity against ceftazidime-susceptible Enterobacteriaceae by broth microdilution method
[34] = tested on: Enterobacteriaceae; assay: Antimicrobial activity against Ceftazidime non-susceptible Enterobacteriaceae assessed as resistant isolate by broth microdilution method
[35] = tested on: Escherichia coli; assay: Antimicrobial activity against ESBL producing Escherichia coli assessed as resistant isolate by broth microdilution method
[36] = tested on: Escherichia coli; assay: Antimicrobial activity against ESBL producing Escherichia coli assessed as susceptible isolate by broth microdilution method
[37] = tested on: Serratia marcescens; assay: Antimicrobial activity against Ceftazidime non-susceptible Serratia marcescens by broth microdilution method
[38] = tested on: Citrobacter; assay: Antimicrobial activity against Citrobacter with derepressed AmpC beta-lactamsae assessed as susceptible isolate by broth microdilution method
[39] = tested on: Enterobacteriaceae; assay: Antimicrobial activity against Ceftazidime non-susceptible Enterobacteriaceae assessed as susceptible isolate by broth microdilution method
[40] = tested on: Enterobacter cloacae; assay: Antimicrobial activity against Enterobacter cloacae with nonderepressed AmpC beta-lactamsae by broth microdilution method
[41] = tested on: Enterobacter cloacae; assay: Antimicrobial activity against Enterobacter cloacae with derepressed AmpC beta-lactamsae by broth microdilution method
[42] = tested on: Escherichia coli; assay: Antimicrobial activity against ESBL producing Escherichia coli assessed as intermediate isolate by broth microdilution method
[43] = tested on: Serratia marcescens; assay: Antimicrobial activity against Ceftazidime susceptible Serratia marcescens assessed as susceptible isolate by broth microdilution method
[44] = tested on: Enterobacter cloacae; assay: Antimicrobial activity against Enterobacter cloacae with derepressed AmpC beta-lactamsae assessed as resistant isolate by broth microdilution method
[45] = tested on: Enterobacter cloacae; assay: Antimicrobial activity against Enterobacter cloacae with nonderepressed AmpC beta-lactamsae assessed as resistant isolate by broth microdilution method
[46] = tested on: Enterobacteriaceae; assay: Antimicrobial activity against Ceftazidime non-susceptible Enterobacteriaceae assessed as intermediate isolate by broth microdilution method
[47] = tested on: Serratia marcescens; assay: Antimicrobial activity against Ceftazidime susceptible Serratia marcescens by broth microdilution method
[48] = tested on: Proteus mirabilis; assay: Antimicrobial activity against ESBL producing Proteus mirabilis assessed as susceptible isolate by broth microdilution method
[49] = tested on: Enterobacter cloacae; assay: Antimicrobial activity against Enterobacter cloacae with derepressed AmpC beta-lactamsae assessed as intermediate isolate by broth microdilution method
[50] = tested on: Enterobacter cloacae; assay: Antimicrobial activity against Enterobacter cloacae with derepressed AmpC beta-lactamsae assessed as susceptible isolate by broth microdilution method
[51] = tested on: Escherichia coli; assay: Antimicrobial activity against Non-ESBL Escherichia coli assessed as intermediate isolate by broth microdilution method

For CO/N=C(\C(=O)N[C@@H]1C(=O)N2C(C(=O)O)=C(CSc3nc(=O)c(O)nn3C)CS[C@H]12)c1csc(N)n1 [CEFTRIAXONE], the Activity [1] was 99.7%, the Activity [2] was 72.7% and the Activity [3] was 1.4%. It also gave an Activity [4] of 0%, an Activity [5] of 9.1% and an MIC50 [6] of 64 µg/mL (≈ 115 µM). The MIC90 [6] was over 64 µg/mL, the MIC50 [7] was 0.03 µg/mL (≈ 0.0541 µM) and the MIC90 [7] was 0.12 µg/mL (≈ 0.216 µM). The Activity [8] was 91.9%, the MIC50 [9] was 0.12 µg/mL (≈ 0.216 µM) and the MIC90 [9] was 0.5 µg/mL (≈ 0.902 µM). It also gave an MIC50 [10] of over 64 µg/mL, an MIC90 [10] of over 64 µg/mL and an MIC [11] of 0.06 µg/mL (≈ 0.108 µM). For the same molecule, the MIC50 [12] was 0.03 µg/mL (≈ 0.0541 µM), the MIC90 [12] was 0.06 µg/mL (≈ 0.108 µM) and the Activity [13] was 99.3%. It also gave an Activity [14] of 98.7%, an MIC50 [15] of 64 µg/mL (≈ 115 µM) and an MIC90 [15] of over 64 µg/mL. For the same molecule, the Activity [16] was 4.7%, the Activity [17] was 60% and the Activity [18] was 1.1%. For the same molecule, the Activity [19] was 0.3%, the Activity [20] was 54.5% and the Activity [21] was 99.3%. For the same molecule, the MIC [22] was at most 0.015 µg/mL, the MIC50 [22] was at most 0.015 µg/mL and the MIC90 [22] was at most 0.015 µg/mL. For the same molecule, the Activity [23] was 0.3%, the Activity [24] was 97.8% and the Activity [25] was 30%. For the same molecule, the Activity [26] was 8.2%, the Activity [27] was 10% and the Activity [28] was 0.2%. The MIC50 [29] was over 64 µg/mL, the MIC90 [29] was over 64 µg/mL and the Activity [30] was 0.4%. It also gave an Activity [31] of 0.6%, an Activity [32] of 0.3% and an MIC50 [33] of 0.03 µg/mL (≈ 0.0541 µM). For the same molecule, the MIC90 [33] was 0.25 µg/mL (≈ 0.451 µM), the Activity [34] was 65.4% and the Activity [35] was 66.7%. The Activity [36] was 20%, the MIC50 [37] was 64 µg/mL (≈ 115 µM) and the MIC90 [37] was over 64 µg/mL. For the same molecule, the Activity [38] was 1.8%, the Activity [39] was 7.6% and the MIC50 [40] was 0.25 µg/mL (≈ 0.451 µM). It also gave an MIC90 [40] of 4 µg/mL (≈ 7.21 µM), an MIC50 [41] of over 64 µg/mL and an MIC90 [41] of over 64 µg/mL. For the same molecule, the Activity [42] was 13.3%, the Activity [43] was 98.1% and the Activity [44] was 93.2%. The Activity [45] was 3.5%, the Activity [46] was 26.9% and the MIC50 [47] was 0.25 µg/mL (≈ 0.451 µM). It also gave an MIC90 [47] of 1 µg/mL (≈ 1.8 µM), an Activity [48] of 100% and an Activity [49] of 6.8%. The Activity [50] was 0% and the Activity [51] was 1.1%.
